Source: patent publication US8748395B2, “Cell-permeable peptide inhibitors of the JNK signal transduction pathway” (Xigen Inflammation Ltd., priority 2006, dated 2014)

Columns and labels:
gerbil = details: in vivo; cited from earlier work
[1] = system: primary embryonic cultures and differentiated PC12 cells; details: dosages that inhibit activation of JNKs; cited from earlier work
AP-1 DNA binding complex = assay: Gel retardation assay with AP-1 probe, HeLa cell nuclear extracts, TNF-α; assay type: cell-based; details: peptide added 30 minutes before TNF-α 5 ng/ml
WiDr cells = assay: Irradiation (30 Gy) induced apoptosis of WiDr cells; assay type: cell-based, human; details: 1 μM added 30 minutes before 30 Gy, analyzed 48 hours later
Method: JNK is also activated by ionizing radiation. To determine whether inventive TAT-IB(s) peptides would provide protection against radiation-induced JNK damage, “WiDr” cells were irradiated (30 Gy) in presence or absence of D-TAT, inventive L-TAT-IB1(s) or inventive D-TAT-IB1(s) peptides (1 μM added 30 minutes before irradiation). Control cells (CTRL) were not irradiated. Cells were analyzed 48 hours later by means of PI and Hoechst 3342 staining, as described above. N=3, SEM are indicated.

JNK = details: JBDs; cited from earlier work
βTC-3 cell cultures = assay: Cellular import of fluorescein-labeled TAT and TAT-IB1(s) peptides; assay type: cell-based
Method: The ability of the L- and D-enantiomeric forms of TAT and inventive TAT-IB1(s) peptides (“TAT-IB peptides”) to enter cells was evaluated. L-TAT, D-TAT, inventive L-TAT-IB1(s), and inventive D-TAT-IB1(s) peptides [SEQ ID NOs: 5, 6, 9 and 12, respectively] were labeled by N-terminal addition of a glycine residue conjugated to fluorescein. Labeled peptides (1 μM) were added to βTC-3 cell cultures, which were maintained as described in Example 3. At predetermined times cells were washed with PBS and fixed for five minutes in ice-cold methanol-acetone (1:1) before being examined under a fluorescence microscope. Fluorescein-labeled BSA (1 μM, 12 moles/mole BSA) was used as a control.

[2] = system: activation of c-Jun by JNK; assay: GAL4 reporter system (GAL-Jun, 5xGAL-LUC) in HeLa cells with MKK4/MKK7 co-transfection; assay type: cell-based
From the text: To determine whether the inventive cell-permeable peptides could block JNK signaling in vivo, we used a heterologous GAL4 system. HeLa cells, cultured as described above, were co-transfected with the 5×GAL-LUC reporter vector together with the GAL-Jun expression construct (Stratagene) comprising the activation domain of c-jun (amino acids 1-89) linked to the GAL4 DNA-binding domain. Activation of JNK was achieved by the co-transfection of vectors expressing the directly upstream kinases MKK4 and MKK7 (see Whitmarsh et al., Science 285: 1573 (1999)). Briefly, 3×10^5 cells were transfected with the plasmids in 3.5-cm dishes using DOTAP (Boehringer Mannheim) following instructions from the manufacturer. For experiments involving GAL-Jun, 20 ng of the plasmid was transfected with 1 μg of the reporter plasmid pFR-Luc (Stratagene) and 0.5 μg of either MKK4 or MKK7 expressing plasmids. Three hours following transfection, cell media were changed and TAT and TAT-IB1(s) peptides (1 μM) were added. The luciferase activities were measured 16 hours later using the “Dual Reporter System” from PROMEGA® after normalization to protein content. […] Because HeLa cells express JNK1 and JNK2 isoforms but not JNK3, we transfected cells with JNK3.

βTC-3 cells = assay: Inhibition of IL-1β induced pancreatic β-cell death by TAT-IB peptides; assay type: cell-based
Method: We investigated the effects of the inventive L-TAT-IB(s) peptides on the promotion of β-cell apoptosis elicited by IL-1. PTC-3 cell cultures were incubated for 30 minutes with 1 μM of inventive L-TAT-IB1(s) peptides followed by 10 ng/mL of IL-1. A second addition of peptide (1 μM) was performed 24 hours later. Apoptotic cells were counted after two days of incubation with IL-1β using propidium iodide (red stained cell are dead cells) and Hoechst 33342 (blue stained cell are cells with intact plasma membrane) nuclear staining.
Long term inhibition of IL-1 induced cells death was examined by treating βTC-3 cells as described above, except that incubation of the cells with the peptides and IL-1β was sustained for 12 days. Additional peptides (1 μM) were added each day and additional IL-1β (10 ng/mL) was added every 2 days. […] Taken together, these experiments provide evidence that inventive TAT-IB(s) peptides are biologically active molecules able to prevent the effects of JNK signaling on cell fate.
Inhibition of IL-1β induced pancreatic β-cell death by the inventive D-TAT-IB1(s) peptide was analyzed. βTC-3 cells were incubated as described above for 30 minutes with one single addition of the indicated peptides (1, μM), then IL-1 (10 ng/ml) was added.
Apoptotic cells were then counted after two days of incubation with IL-1β by use of Propidium Iodide and Hoechst 33342 nuclear staining. A minimum of 1,000 cells were counted for each experiment. Standard Error of the Means (SEM) are indicated, n=5.
Long term inhibition of IL-1P induced cell-death by the D-TAT-IB1 peptide was also analyzed. βTC-3 cells were incubated as above for 30 minutes with one single addition of the indicated peptides (1 μM), then IL-1β (10 ng/ml) was added, followed by addition of the cytokine every two days. Apoptotic cells were then counted after 15 days of incubation with IL-1 by use of propidium iodide and Hoechst 33342 nuclear staining. […] A minimum of 1.000 cells were counted for each experiment.

JNK3 = molecular target: T1, JNK3 (Homo sapiens, UniProt P53779); assay: Solid phase kinase assay: JNK3 phosphorylation of Elk1; assay type: biochemical; details: dose response 0-25 μM, GST-ELK1 (aa 307-428)
T1 construct: host or cells: rabbit reticulocyte lysate, in vitro transcription/translation
T1 sequence (P53779 whole entry, species assumed, the tested form may be a part): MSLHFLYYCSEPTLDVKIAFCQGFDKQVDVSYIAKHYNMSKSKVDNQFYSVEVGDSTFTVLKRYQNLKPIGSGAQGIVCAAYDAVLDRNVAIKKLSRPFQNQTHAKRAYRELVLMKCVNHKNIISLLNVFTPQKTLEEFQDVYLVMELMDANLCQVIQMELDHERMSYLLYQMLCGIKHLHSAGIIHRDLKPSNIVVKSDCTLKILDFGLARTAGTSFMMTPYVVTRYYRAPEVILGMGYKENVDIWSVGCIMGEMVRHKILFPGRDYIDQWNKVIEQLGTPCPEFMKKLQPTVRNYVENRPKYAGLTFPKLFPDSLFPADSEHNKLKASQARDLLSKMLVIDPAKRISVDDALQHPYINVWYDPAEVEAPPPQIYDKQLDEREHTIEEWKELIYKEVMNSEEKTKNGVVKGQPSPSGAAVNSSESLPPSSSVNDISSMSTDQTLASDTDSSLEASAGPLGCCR
Method: (§1) The effects of the peptides on JNKs-mediated phosphorylation of their target transcription factors were investigated in vitro. Recombinant and non activated JNK1, JNK2 and JNK3 were produced using a TRANSCRIPTION AND TRANSLATION rabbit reticulocyte lysate kit (PROMEGA®) and used in solid phase kinase assays with c-jun, ATF2 and Elk1, either alone or fused to glutathione-S-transferase (GST), as substrates. Dose response studies were performed wherein inventive L-TAT or L-TAT-IB1(s) peptides (0-25 μM) were mixed with the recombinant JNK1, JNK2, or JNK3 kinases in reaction buffer (20 mM Tris-acetate, 1 mM EGTA, 10 mM p-nitrophenyl-phosphate (pNPP), 5 mM sodium pyrophosphate, 10 mM p-glycerophosphate, 1 mM dithiothreitol) for 20 minutes. The kinase reactions were then initiated by the addition of 10 mM MgCl2 and 5 pCi^33P-γ-dATP and 1 μg of either GST-Jun (aa 1-89), GST-AFT2 (aa 1-96) or GST-ELK1 (aa 307-428). GST-fusion proteins were purchased from Stratagene (La Jolla, Calif.).
(§2) Ten μL of glutathione-agarose beads were also added to the mixture. Reaction products were then separated by SDS-PAGE on a denaturing 10% polyacrylamide gel. Gels were dried and subsequently exposed to X-ray films (Kodak).

[3] = system: recombinant JNK1, JNK2 and JNK3; assay: Solid phase kinase assay: JNK-mediated phosphorylation of c-Jun, ATF2 and Elk1; assay type: biochemical
Method: as §1, §2
The ability of D-TAT, inventive D-TAT-IB1(s) and inventive L-TAT-IB1 (s) peptides (0-250 μM dosage study) to inhibit GST-Jun (aa 1-73) phosphorylation by recombinant JNK1, JNK2, and JNK3 by were analyzed as described above. Overall, D-TAT-IB1(s) peptide decreased JNK-mediated phosphorylation of c-Jun, but at levels approximately 10-20 fold less efficiently than L-TAT-IB1(s).

[4] = system: JNKs activated by stressful stimuli; assay: c-Jun phosphorylation by activated JNKs pulled down with GST-Jun from UV-irradiated HeLa or IL-1β treated βTC-3 cells; assay type: biochemical; details: 25 μM peptide, 20 minutes
Method: The effects of the L-TAT or inventive L-TAT-IB1(s) peptides on JNKs activated by stressful stimuli were evaluated using GST-Jun to pull down JNKs from UV-light irradiated HeLa cells or IL-1β treated PTC cells. PTC cells were cultured as described above. HeLa cells were cultured in DMEM medium supplemented with 10% Fetal Calf Serum, 100 μg/mL Streptomycin, 100 units/ml Penicillin and 2 mM Glutamine. One hour prior to being used for cell extract preparation, PTC cells were activated with IL-1β as described above, whereas HeLa cells were activated by UV-light (20 J/m^2). Cell extracts were prepared from control, UV-light irradiated HeLa cells and IL-1β treated βTC-3 cells by scraping the cell cultures in lysis buffer (20 mM Tris-acetate, 1 mM EGTA, 1% Triton X-100, 10 mM p-nitrophenyl-phosphate, 5 mM sodium pyrophosphate, 10 mMP-glycerophosphate, 1 mM dithiothreitol). Debris was removed by centrifugation for five minutes at 15,000 rpm in an SS-34 Beckman rotor. One-hundred μg extracts were incubated for one hour at room temperature with one μg GST-jun (amino acids 1-89) and 10 μL of glutathione-agarose beads (Sigma). Following four washes with the scraping buffer, the beads were resuspended in the same buffer supplemented with L-TAT or inventive L-TAT-IB1(s) peptides (25 μM) for 20 minutes. […]

In the case of `N#CC(c1ccnc(NCCc2cccnc2)n1)c1nc2ccccc2s1` (centres unmarked) [AS601245], the “protection against delayed loss of hippocampal CA1 neurons” value (gerbil) is given as “significant protection against the delayed loss of hippocampal CA1 neurons”.

In the case of `CCSCc1ccc2c(c1)c1c3c(c4c5cc(CSCC)ccc5n5c4c1n2[C@H]1C[C@](O)(C(=O)OC)[C@]5(C)O1)CNC3=O` [CEP-1347], the neuronal survival [1] is listed as “promotes neuronal survival at dosages that inhibit activation of the c-Jun amino-terminal kinases (JNKs)”.

For “H-GRKKRRQRRRPPRPKRPTTLNLFPQVPRSQD-OH [L-TAT-IB1(s)]”, the “formation of the AP-1 DNA binding complex” value (AP-1 DNA binding complex) was “decrease the formation of the AP-1 DNA binding complex in the presence of TNF-α” and the “prevention of irradiation induced apoptosis” value (WiDr cells) was “able to prevent irradiation induced apoptosis”.

For “IPSPSVEEPH KHRPTTLRLT TLGAQDS (IPSPSVEEPHKHRPTTLRLTTLGAQDS) [IB2]”, the “efficiency in binding JNK relative to c-Jun or ATF2” value (JNK) is listed as “approximately 100 fold”.

For “NH2-GRKKRRQRRR-COOH (H-GRKKRRQRRR-OH) [L-TAT]”, the “entry of fluorescein labeled peptide into cells” value (βTC-3 cell cultures; 1 μM labeled peptide added to culture medium, fluorescence microscope) was “efficiently and rapidly (less than five minutes) entered cells”.

For “NH2-RRRQRRKKRG-COOH (D-amino acids) [D-TAT]”, the “stability inside the cells” value (βTC-3 cell cultures) was “extremely stable inside the cells”.

For “PGTGCGDTYR PKRPTTLNLF PQVPRSQDT (PGTGCGDTYRPKRPTTLNLFPQVPRSQDT) [IB1]”, the “efficiency in binding JNK relative to c-Jun or ATF2” value (JNK) is given as “approximately 100 fold”.

With “TAT-IB(s): enantiomer not worded; the examples concerned name L-TAT-IB1(s) (SEQ ID NO: 9) as the tested peptide (GRKKRRQRRRPPRPKRPTTLNLFPQVPRSQD)” the “activation of c-Jun following MKK4 and MKK7 mediated activation of JNK (luciferase)” value ([2]; 1 μM peptide, luciferase measured 16 hours later) was “blocked activation of c-Jun following MKK4 and MKK7 mediated activation of JNK”, the “activation of c-Jun in cells transfected with JNK3” value ([2]; HeLa cells transfected with JNK3, 1 μM peptide) was “inhibited JNK2 mediated activation of c-Jun” and the “inhibition of IL-1-induced apoptosis” value (βTC-3 cells; 1 μM peptide, second addition at 24 hours, IL-1β 10 ng/mL for two days) was “inhibited IL-1-induced apoptosis of βTC-3 cells”. For the same molecule, the “long term protection against IL-1 induced apoptosis” value (βTC-3 cells; 12 days, peptide 1 μM added each day, IL-1β every 2 days) was “confers strong protection against apoptosis”, the “inhibition of JNK3 phosphorylation of Elk1” value (JNK3) was “absence of TAT-IB(s) inhibition of JNK3 phosphorylation of Elk1” and the “inhibition of JNK family phosphorylation of target transcription factors, overall” value [3] was “superior effects in inhibiting JNK family phosphorylation of their target transcription factors”. The “peptide dose giving nearly complete inhibition of c-Jun, ATF2 and Elk1 phosphorylation by JNKs” value ([3]; dose response 0-25 μM, doses as low as) was 2.5 µM and the “prevention of phosphorylation of c-Jun by activated JNKs” value [4] was “efficiently prevented phosphorylation of c-Jun by activated JNKs”.

In the case of “TDQSRPVQPFLNLTTPRKPRYTDPPRRRQRRKKRG (TDQSRPVQPFLNLTTPRKPRYTDPPRRRQRRKKRG) [D-TAT-IB1, reference compound]”, the “decrease of IL-1 induced apoptosis” value (βTC-3 cells; one single addition of peptide 1 μM, two days of IL-1β) is reported as “decreased IL-1 induced apoptosis to a similar extent as L-TAT-IB peptides”.
